Reference: ChEMBL document CHEMBL1201862, “PubChem BioAssay data set” (2004)
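Dose response: 5 concentrations. Exposure: 48 h. Format: 96-well plates. Endpoint: linear interpolation; highest concentration if not reached. Here, GI50 denotes the concentration required for 50% inhibition of growth.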 Calls of active or inactive are those of the source. Cut-off read from the data, not from the text of the source: active = GI50 up to about 1.1 µM and inactive = higher.

How the values were obtained:
Assay in all cases: growth of human tumour cells (NCI), 48 h
[1] = system: 786-0
[2] = system: ACHN
[3] = system: COLO 205
[4] = system: EKVX
[5] = system: HOP-62
[6] = system: HT-29
[7] = system: K562
[8] = system: MOLT-4
[9] = system: Malme-3M
[10] = system: NCI-H226
[11] = system: NCI-H460
[12] = system: OVCAR-3
[13] = system: OVCAR-5
[14] = system: SK-OV-3
[15] = system: U-251
[16] = system: UACC-257
[17] = system: UACC-62
[18] = system: UO-31
[19] = system: A498

Measured: GI50

CC(=O)Nc1ccc(/C=C(\NC(=O)c2ccccc2)C(=O)NNS(=O)(=O)c2ccc(C)cc2)cc1
inactive: [1] > 10 µM | [2] > 100 µM | [3] 25.8 µM | [4] > 100 µM | [5] > 100 µM | [6] > 100 µM | [7] > 100 µM | [8] > 100 µM | [9] > 100 µM | [10] > 100 µM | [11] 50.2 µM | [12] > 100 µM | [13] > 100 µM | [14] > 100 µM | [15] > 100 µM | [16] > 100 µM | [17] > 100 µM | [18] > 100 µM

COC(=O)C(CC(=O)c1cc2c(cc1I)OCO2)Cc1cc(OC)c(OC)c(OC)c1I (stereo not drawn)
inactive: [1] > 100 µM | [2] 80.4 µM | [3] > 100 µM | [4] > 100 µM | [5] > 100 µM | [6] > 100 µM | [7] > 100 µM | [8] 8.67 µM | [9] > 100 µM | [10] > 100 µM | [11] > 100 µM | [12] 7.21 µM | [13] 2.88 µM | [14] > 100 µM | [15] 65.6 µM | [16] 16.4 µM | [17] 37.2 µM

Cc1nc(O)nc2c1C(NCCCN(C)C)c1cc(Cl)ccc1N2 (stereo not drawn)
inactive: [1] 14.6 µM | [2] 16.6 µM | [3] 13.2 µM | [4] 16.3 µM | [5] 14.6 µM | [6] 10.4 µM | [7] 8.61 µM | [8] 19.8 µM | [9] 16.7 µM | [10] 16.6 µM | [11] 14.7 µM | [12] 17.4 µM | [14] 16.9 µM | [15] 15.9 µM | [16] 13.2 µM | [17] 13.4 µM | [18] 13.6 µM

CCOc1ccccc1NC(=O)CCc1nnc(S)[nH]1
inactive: [1] > 100 µM | [2] > 100 µM | [3] > 100 µM | [4] > 100 µM | [5] > 100 µM | [6] > 100 µM | [7] > 100 µM | [8] > 100 µM | [9] > 100 µM | [10] > 100 µM | [11] > 100 µM | [12] > 100 µM | [13] > 100 µM | [14] > 100 µM | [15] > 100 µM | [16] > 100 µM | [17] > 100 µM | [18] > 100 µM

COc1cc(C2C(Cl)C(=O)N2NC(=O)c2ccc(NC(C)=O)cc2)cc(Br)c1O (stereo not drawn)
inactive: [2] > 100 µM | [3] > 100 µM | [5] > 100 µM | [6] > 100 µM | [7] > 100 µM | [8] > 100 µM | [9] > 100 µM | [10] > 100 µM | [11] > 100 µM | [12] > 100 µM | [13] > 100 µM | [14] > 100 µM | [15] > 100 µM | [16] > 100 µM | [17] > 100 µM | [18] > 100 µM

O=C1Sc2ccccc2C(=O)N2CCSC12 (stereo not drawn)
inactive: [19] 31 µM | [3] > 100 µM | [5] > 100 µM | [7] > 100 µM | [8] > 100 µM | [9] > 100 µM | [11] > 100 µM | [12] > 100 µM | [13] > 100 µM | [14] > 100 µM | [15] > 100 µM | [16] > 100 µM | [17] > 100 µM | [18] > 100 µM

NCc1ccccc1C1CSCSC1
inactive: [2] > 100 µM | [6] > 100 µM | [7] > 100 µM | [8] > 100 µM | [9] > 100 µM | [10] > 100 µM | [11] > 100 µM | [12] > 100 µM | [14] > 100 µM | [15] > 100 µM | [16] > 100 µM | [17] > 100 µM | [18] > 100 µM

CCOC(=O)C12CCC(=O)C=C1[C@@H](C)C(=O)CC2 (stereo partly drawn)
inactive: [2] > 100 µM | [3] > 100 µM | [4] > 100 µM | [5] > 100 µM | [6] > 100 µM | [9] > 100 µM | [10] > 100 µM | [11] > 100 µM | [12] > 100 µM | [13] > 100 µM | [14] > 100 µM | [15] > 100 µM | [16] > 100 µM | [17] > 100 µM | [18] > 100 µM

O=C1c2ccccc2C2(O)NC(=S)N(c3ccccc3)C12O (stereo not drawn)
inactive: [1] > 100 µM | [3] > 100 µM | [4] > 100 µM | [6] > 100 µM | [7] > 100 µM | [8] > 100 µM | [9] > 100 µM | [11] > 100 µM | [12] > 100 µM | [13] > 100 µM | [14] > 100 µM | [15] > 100 µM | [16] > 100 µM | [17] > 100 µM | [18] > 100 µM
